The experiment has as its target T1, Receptor-type tyrosine-protein kinase FLT3 (Homo sapiens, UniProt P36888).
T1 sequence (P36888 whole entry): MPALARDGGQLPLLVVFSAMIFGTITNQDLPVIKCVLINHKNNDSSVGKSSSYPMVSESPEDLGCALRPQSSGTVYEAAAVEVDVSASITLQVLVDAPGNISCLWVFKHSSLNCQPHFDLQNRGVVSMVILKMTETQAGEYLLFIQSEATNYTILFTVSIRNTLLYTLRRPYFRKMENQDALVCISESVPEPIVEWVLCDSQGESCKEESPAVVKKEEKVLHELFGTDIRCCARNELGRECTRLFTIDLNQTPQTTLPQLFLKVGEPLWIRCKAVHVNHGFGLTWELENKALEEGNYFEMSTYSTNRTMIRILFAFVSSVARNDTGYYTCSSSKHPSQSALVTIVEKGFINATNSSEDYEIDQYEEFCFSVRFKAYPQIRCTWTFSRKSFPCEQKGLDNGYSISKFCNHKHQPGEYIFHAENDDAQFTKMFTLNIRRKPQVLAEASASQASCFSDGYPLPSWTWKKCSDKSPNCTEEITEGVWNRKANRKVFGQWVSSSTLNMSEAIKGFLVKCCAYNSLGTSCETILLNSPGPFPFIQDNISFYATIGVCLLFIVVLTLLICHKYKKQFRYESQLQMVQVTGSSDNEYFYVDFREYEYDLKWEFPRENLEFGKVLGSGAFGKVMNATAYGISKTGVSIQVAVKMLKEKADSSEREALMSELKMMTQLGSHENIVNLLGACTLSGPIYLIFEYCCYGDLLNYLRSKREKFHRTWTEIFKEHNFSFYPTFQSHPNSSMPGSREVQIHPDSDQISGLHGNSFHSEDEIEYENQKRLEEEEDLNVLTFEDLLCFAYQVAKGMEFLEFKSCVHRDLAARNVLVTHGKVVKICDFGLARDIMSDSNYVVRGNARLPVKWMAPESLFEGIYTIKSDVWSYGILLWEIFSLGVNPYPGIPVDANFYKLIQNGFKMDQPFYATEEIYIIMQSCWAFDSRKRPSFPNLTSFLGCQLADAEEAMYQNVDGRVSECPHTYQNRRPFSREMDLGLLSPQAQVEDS
Description: In Vitro Kinase Assay: The inhibition of the FLT3 kinase activity was measured with homogeneous, time-resolved fluorescence (HTRF) assays. Recombinant proteins containing the FLT3 kinase domain were purchased from Invitrogen (Carlsbad, Calif., USA). Optimal enzyme, ATP, and substrate concentrations were established with the HTRF KinEASE kit (Cisbio, France) according to the manufacturer's instructions. The FLT3 enzymes were mixed with serially diluted compounds and peptide substrates in a kinase reaction buffer (50 mM HEPES (pH 7.0), 500 μM ATP, 0.1 mM sodium orthovanadate, 5 mM MgCl2, 1 mM DTT, 0.01% bovine serum albumin (BSA), and 0.02% NaN3). Ten microliters of the total volume of the kinase reaction were added to the wells of a 96-well assay plate. The kinase reactions were incubated for 30 min at 25° C. For the detection of the phospho-substrate, the Eu3b-Cryptate-conjugated mouse monoclonal antibody (PT66) and the streptavidin-XL665 (SA-XL) were added, and the reactions were then incubated for 1 hour at 25° C. The signal was measured on an Victor X5 multi-label reader (PerkinElmer, Waltham, Mass., USA). On the technique in general: TR-FRET usually uses a lanthanide donor and a delayed reading to cut background.
One may read the IC50 as the concentration at which inhibition is half-maximal. On to `O=C1Nc2ccc([N+](=O)[O-])cc2/C1=C1/Nc2ccc(F)cc2/C1=N\OCCN1CCCCC1`, for which the IC50 came to 453 nM.

With `CN1CCN(CCO/N=C2/C(=C3/C(=O)Nc4ccc([N+](=O)[O-])cc43)Nc3ccc(F)cc32)CC1`, the 50% inhibitory concentration (IC50) is 35.5 nM.

As to `CN1CCN(CCO/N=C2/C(=C3/C(=O)Nc4ccc(F)cc43)Nc3ccc(F)cc32)CC1`, the IC50 turned out to be 40.4 nM.

On to `O=C1Nc2ccccc2/C1=C1/Nc2ccccc2/C1=N\OCCN1CCCCC1`, for which the concentration for half-maximal inhibition (IC50) is 251 nM.

Regarding `O=C1Nc2ccc([N+](=O)[O-])cc2/C1=C1/Nc2ccc(F)cc2/C1=N\OCCN1CCNCC1`, the IC50 was determined as 35.5 nM.

Consider `O=C1Nc2ccccc2/C1=C1/Nc2ccccc2/C1=N\OCCN1CCCC1`, for which the IC50 was found to be 51.9 nM.

With `O=C1Nc2ccc(F)cc2/C1=C1/Nc2ccc(F)cc2/C1=N\OCCN1CCNCC1`, the IC50 was 26.2 nM.

As for `NC1CCN(CCO/N=C2/C(=C3/C(=O)Nc4ccc(F)cc43)Nc3ccc(F)cc32)CC1`, the IC50 stood at 81.5 nM.

For `O=C1Nc2ccc(Br)cc2/C1=C1/Nc2ccccc2/C1=N\OCCN1CCNCC1`, the IC50 amounted to 1 nM.

Take `CN1CCN(CCO/N=C2/C(=C3/C(=O)Nc4ccc(I)cc43)Nc3ccccc32)CC1`: the IC50 was 5.8 nM.

As to `O=C1Nc2ccc(F)cc2/C1=C1/Nc2ccccc2/C1=N\OCCN1CCNCC1`, the 50% inhibitory concentration (IC50) worked out at 0.9 nM.

Turning to `CN1CCN(CCO/N=C2/C(=C3/C(=O)Nc4ccccc43)Nc3ccccc32)CC1`, the half-inhibitory concentration (IC50) is 7.42 nM.

Consider `COC(=O)c1ccc2c(c1)/C(=C1/Nc3ccccc3/C1=N\OCCN1CCOCC1)C(=O)N2`, for which the IC50 was 253 nM.

Turning to `O=C1Nc2ccc(I)cc2/C1=C1/Nc2ccccc2/C1=N\OCCN1CCNCC1`, the IC50 is 1.8 nM.

For the compound `CN1CCN(CCO/N=C2/C(=C3/C(=O)Nc4ccc(Cl)cc43)Nc3ccccc32)CC1`, the IC50 turned out to be 2.4 nM.

On to `O=C1Nc2ccc([N+](=O)[O-])cc2/C1=C1/Nc2ccc(F)cc2/C1=N\OCCN1CCCC1`, for which the IC50 came out at 112 nM.

As to `CN1CCN(CCO/N=C2/C(=C3/C(=O)Nc4ccc(F)cc43)Nc3ccccc32)CC1`, the IC50 was 3.2 nM.

Regarding `O=C1Nc2ccc(Cl)cc2/C1=C1/Nc2ccccc2/C1=N\OCCN1CCNCC1`, the IC50 was 1.3 nM.

Source of the values: ChEMBL document CHEMBL5729175, “Pharmaceutical composition for preventing or treating acute myeloid leukemia or metastatic breast cancer” (2022).
